Laboratory results reported in patent US20260263584A1, “Modulating the Innate Immunity of RNA” (priority 2023, published 2026).

Tested on: Hela cells
Type: cell-based, human

Cn1c(=O)n(C2CCC(=O)NC2=O)c2cccc(C#CCOC3CCN(C[C@H]4CC[C@H](n5cc(NC(=O)c6cnn7ccc(N8C[C@H]9C[C@@H]8CO9)nc67)c(C(F)F)n5)CC4)CC3)c21 (stereo partly drawn) [PF-07911620, N-{3-(difluoromethyl)-1-[(1S,4R)-4-({4-[(3-{1-[(3S)-2,6-dioxopiperidin-3-yl]-3-methyl-2-oxo-2,3-dihydro-1H-benzimidazol-4-yl}prop-2-yn-1-yl)oxy]piperidin-1-yl}methyl)cyclohexyl]-1H-pyrazol-4-yl}-5-[(1R,4R)-2-oxa-5-azabicyclo[2,2,1]heptan-5-yl]pyrazolo[1,5-a]pyrimidine-3-carboxamide]
frequency of HA-positive cells, higher than vehicle controls: 5.5 fold
